Measurements taken from ChEMBL document CHEMBL4400577, “Fragment-based Discovery of a Small-Molecule Protein Kinase C-iota Inhibitor Binding Post-kinase Domain Residues” (ACS Med Chem Lett, 2019).
In brackets after ≈: the same amount, converted by molar mass.

Assays:
Huh-7 = experiment: Antiproliferative activity against human HuH7 cells assessed as cell growth inhibition measured after 72 hrs by CellTiter-Glo luminescent assay; assay type: functional; details: Huh-7, 72 h
[1] = target: T1, Protein kinase C iota type (Homo sapiens, UniProt P41743); experiment: Inhibition of recombinant human full length N-terminal GST-fused PKCi (1 to 587 residues) expressed in baculovirus expression system using 5-FAM-RFARKGSLRQKNV as substrate measured after 60 mins by caliper microfluidic mobility shift assay
T1 sequence (P41743 whole entry): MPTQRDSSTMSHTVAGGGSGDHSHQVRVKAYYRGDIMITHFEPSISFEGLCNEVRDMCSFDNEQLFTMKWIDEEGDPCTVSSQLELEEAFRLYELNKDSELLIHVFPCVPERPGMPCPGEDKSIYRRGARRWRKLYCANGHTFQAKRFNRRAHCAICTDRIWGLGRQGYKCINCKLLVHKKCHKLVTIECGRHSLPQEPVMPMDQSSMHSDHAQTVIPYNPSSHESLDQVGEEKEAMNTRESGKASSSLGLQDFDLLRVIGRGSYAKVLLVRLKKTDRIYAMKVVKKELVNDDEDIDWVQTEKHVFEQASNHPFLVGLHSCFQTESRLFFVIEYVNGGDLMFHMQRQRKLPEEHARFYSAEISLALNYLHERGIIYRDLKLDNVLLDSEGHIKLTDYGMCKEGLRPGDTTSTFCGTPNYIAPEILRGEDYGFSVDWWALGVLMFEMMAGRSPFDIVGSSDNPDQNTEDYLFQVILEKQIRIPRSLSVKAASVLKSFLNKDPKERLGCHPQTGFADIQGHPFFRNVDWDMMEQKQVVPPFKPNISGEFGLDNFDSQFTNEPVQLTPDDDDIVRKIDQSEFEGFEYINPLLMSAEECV

[2] = Clearance in mouse liver microsomes; assay type: ADME, Microsome; details: read-out: CLH
[3] = Solubility of the compound at pH 7.4; assay type: physicochemical; details: buffer
[4] = Clearance in human liver microsomes; assay type: ADME, Microsome; details: read-out: CLH
[5] = Permeability across apical to basolateral side in human Caco2 cells; assay type: ADME, cell-based; details: Caco-2

Row | Structure (SMILES) | IC50 [1] [µM] | also measured
1 | N[C@H](CNc1nc(-c2ccncc2)nc2sc3c(c12)CCCC3)Cc1ccccc1 |  | GI50 (Huh-7): 3.1 µM
2 | Nc1nccnc1C(=O)Nc1ccc(O)cc1 | 76 | 
3 | Cc1cc(NC(=O)c2nccnc2N)cc(C)n1 | 263 | 
4 | Nc1nccnc1C(=O)Nc1ccnc2[nH]ccc12 | > 384 | 
5 | Nc1nccnc1C(=O)NCc1ccncc1 | > 384 | 
6 | Nc1nccnc1C(=O)Nc1ccncc1Br | > 384 | 
7 | CCc1cc(NC(=O)c2nccnc2N)ccn1 | 19.6 | 
8 | Nc1nccnc1C(=O)Nc1cccc(C2CC2)c1 | 42.2 | 
9 | CC(C)(C)c1cc(NC(=O)c2nccnc2N)ccn1 | 24 | 
10 | Nc1nccnc1C(=O)Nc1cccnc1 | 77 | 
11 | Nc1nccnc1C(=O)Nc1ccnc(Br)c1 | > 384 | 
12 | Nc1nccnc1C(=O)Nc1ccc2[nH]ccc2c1 | 34 | 

The next lines start with results.

Row | IC50 [1] [µM] | Structure (SMILES) | also measured
13 | 32 | Nc1ncc(-c2ccccc2)cc1C(=O)Nc1ccncc1 | 
14 | 0.71 | NCc1cccc(-c2cnc(N)c(C(=O)Nc3ccncc3)c2)c1 | 
15 | 23 | Nc1nccnc1C(=O)Nc1ccncc1 | 
16 | > 384 | NC(=O)c1cccc(-c2cnc(N)c(C(=O)Nc3ccncc3)c2)c1 | 
17 | 0.34 | Nc1ncc(-c2cccc(N3CCNCC3)c2)cc1C(=O)Nc1ccncc1 | microsomal CLint [2]: 71 µL/min/mg; solubility [3]: 164 µg/mL (≈ 438 µM); microsomal CLint [4]: 5.1 µL/min/mg; GI50 (Huh-7): 11.3 µM; Papp A→B [5]: 0.28 ×10⁻⁶ cm/s
18 | 0.27 | Nc1ncc(-c2cccc(N3CCNCC3)c2)nc1C(=O)Nc1ccncc1 | 
19 | 22 | Nc1ncccc1C(=O)Nc1ccncc1 | 
20 | > 384 | Nc1ncc(Br)cc1C(=O)Nc1ccncc1 | 
